In this assay the test system is modified version of the GPR119 receptor (94% identity to human receptor). Nature of the assay: cAMP production assay (LANCE cAMP kit, TR-FRET) in HEK-293 cells. The class given is cell-based. The settings on record: for cAMP production in HEK-293 cells: HEK-293 cells stably expressing modified GPR119, test compounds 0.2 nM to 10 μM, one-hour incubation; for Fold over baseline: increase in cAMP relative to basal levels, agonist activity if 1.5-fold or greater. On the procedure: The assay utilized HEK-293 cells that stably express a modified version of the GPR119 receptor (94% identity to human receptor), under the control of a CMV promoter containing a tet-on element for tetracycline-inducible expression. GPR119 agonist-induced cyclic AMP (cAMP) production was measured in this cell line using the LANCE cAMP kit (Perkin Elmer, Waltham, Mass.). To generate a working stock of cells for the assay, cells were treated overnight with 1 μg/mL doxycycline at 37° C. in the presence of 5% CO2 to induce receptor expression. Cells were then harvested by enzymatic dissociation with 0.05% trypsin, resuspended in freezing medium (DMEM growth medium with 10% each of fetal bovine serum and DMSO), aliquoted and frozen at −80° C. On the day of the assay, frozen cells were thawed, washed 1× in PBS and resuspended in Hank's buffered salt solution (HBSS) containing 5 mM HEPES, 0.1% BSA and Alexa Fluor 647-conjugated anti-cAMP antibody (diluted 1:100). The cell suspension was then transferred to a Proxiplate Plus white 384-well assay plate (Perkin-Elmer) at 2000 cells/well. Test compounds at final concentrations ranging from 0.2 nM to 10 μM were added to the assay plate, followed by a one-hour incubation at ambient temperature (volume=10 μL/well). DMSO concentration was held constant at 0.5%. After incubation with test compounds, 10 μL, of a detergent buffer containing a biotinylated cAMP/Europium-conjugated streptavidin complex (Europium-labeled cAMP tracer) were added to each well on the assay plate, followed by a 2-hour incubation at ambient temperature. During this incubation cAMP released from lysed cells competes with the Europium-labeled cAMP tracer for binding to the Alexa Fluor 647-conjugated antibody. […] Cellular cAMP levels were then determined by interpolation of raw signal data using a cAMP standard curve. Compounds were determined to have agonist activity if they stimulated a 1.5-fold or greater increase in cAMP relative to basal levels.
(Cyclic AMP is a second messenger, typically raised through Gs and lowered through Gi signalling.)

Structures can show the parent of a compound that is named as a salt.

As to `CS(=O)(=O)c1ccc(N[C@H]2CCN(C3CCN(c4nc(C5CC5)ns4)CC3)C2=O)c(F)c1` [Example 23, (S)-1-(1-(3-cyclopropyl-1,2,4-thiadiazol-5-yl)piperidin-4-yl)-3-(2-fluoro-4-(methyl-sulfonyl)phenylamino) pyrrolidin-2-one], the “cAMP production in HEK-293 cells” value was 11.9 nmol and the Fold over baseline was found to be 2.9.
For `CS(=O)(=O)c1ccc(N[C@H]2CCN(C3CCN(c4nc(-c5ccccc5)ns4)CC3)C2=O)c(F)c1` [Example 24, (S)-3-(2-fluoro-4-(methylsulfonyl)phenylamino)-1-(1-(3-phenyl-1,2,4-thiadiazol-5-yl)piperidin-4-yl)pyrrolidin-2-one], in that order: 9.7 nmol and 2.6.
On to `CS(=O)(=O)c1ccc(N[C@H]2CCN(C3CCN(c4nc([C@H](O)CO)ns4)CC3)C2=O)c(F)c1` [Example 25, (S)-1-(1-(3-((S)-1,2-dihydroxyethyl)-1,2,4-thiadiazol-5-yl)piperidin-4-yl)-3-(2-fluoro-4-(methylsulfonyl)phenylamino)pyrrolidin-2-one], for which the “cAMP production in HEK-293 cells” value worked out at 8.3 nmol and the Fold over baseline came to 2.1.
For `CC(C)c1nsc(N2CCC(N3CC[C@H](N(C)c4cc(F)c(S(C)(=O)=O)cc4F)C3=O)CC2)n1` [Example 26, (S)-3-((2,5-Difluoro-4-(methylsulfonyl)phenyl)(methyl)amino)-1-(1-(3-isopropyl-1,2,4-thiadiazol-5-yl)piperidin-4-yl)pyrrolidin-2-one], in that order: 17.2 nmol and 3.9.
For `CC(C)c1nsc(N2CCC(N3CCC[C@H](Nc4ccc(S(C)(=O)=O)cc4F)C3=O)CC2)n1` [Example 27, (S)-3-(2-fluoro-4-(methylsulfonyl)phenylamino)-1′-(3-isopropyl-1,2,4-thiadiazol-5-yl)-[1,4′-bipiperidin]-2-one], in that order: 17.5 nmol and 3.0.
For `CC(C)Cc1nsc(N2CCC(N3CCC[C@H](Nc4ccc(S(C)(=O)=O)cc4F)C3=O)CC2)n1` [Example 28, (S)-3-(2-fluoro-4-(methylsulfonyl)phenylamino)-1′-(3-isobutyl-1,2,4-thiadiazol-5-yl)-[1,4′-bipiperidin]-2-one], in that order: 11.6 nmol and 2.3.
For the compound `CS(=O)(=O)c1ccc(N[C@H]2CCCN(C3CCN(c4nc(-c5ccccc5)ns4)CC3)C2=O)c(F)c1` [Example 29, (S)-3-(2-fluoro-4-(methylsulfonyl)phenylamino)-1′-(3-phenyl-1,2,4-thiadiazol-5-yl)-[1,4′-bipiperidin]-2-one], the “cAMP production in HEK-293 cells” value was 7.3 nmol and the Fold over baseline is 2.2.
For `CC(C)(C)c1nsc(N2CCC(N3CCC[C@H](Nc4ccc(S(C)(=O)=O)cc4F)C3=O)CC2)n1` [Example 30, (S)-1′-(3-tert-butyl-1,2,4-thiadiazol-5-yl)-3-(2-fluoro-4-(methylsulfonyl)phenylamino)-[1,4′-bipiperidin]-2-one], in that order: 13.9 nmol and 2.8.
For `CC(C)(C)c1nsc(N2CCC(N3CCC[C@H](Nc4c(F)cc(S(C)(=O)=O)cc4F)C3=O)CC2)n1` [Example 31], in that order: 7.6 nmol and 1.9.
For `CSc1ccc(OC2CCN(C3CCN(c4nc(C(C)C)ns4)CC3)C2=O)cc1` (centres unmarked) [Example 32, 1-(1-(3-Isopropyl-1,2,4-thiadiazol-5-yl)piperidin-4-yl)-3-(4-(methylthio)phenoxy)pyrrolidin-2-one], in that order: 17.8 nmol and 2.7.
Turning to `CC(C)c1nsc(N2CCC(N3CCC(Oc4ccc(Br)cc4F)C3=O)CC2)n1` (centres unmarked) [Example 33, 3-(4-bromo-2-fluorophenoxy)-1-(1-(3-isopropyl-1,2,4-thiadiazol-5-yl)piperidin-4-yl)pyrrolidin-2-one], the “cAMP production in HEK-293 cells” value was determined as 16.9 nmol and the Fold over baseline stood at 2.7.
For `CC(C)(C)c1nsc(N2CCC(N3CC[C@H](Oc4cc(F)c(S(C)(=O)=O)cc4F)C3=O)CC2)n1` [Example 34, (S)-1-(1-(3-tert-butyl-1,2,4-thiadiazol-5-yl)piperidin-4-yl)-3-(2,5-difluoro-4-(methylsulfonyl)phenoxy)pyrrolidin-2-one], in that order: 29.2 nmol and 4.5.
For `CC(C)(C)c1nsc(N2CCC(N3CC[C@H](Oc4ccc(S(C)(=O)=O)cc4F)C3=O)CC2)n1` [Example 35, (S)-1-(1-(3-tert-butyl-1,2,4-thiadiazol-5-yl)piperidin-4-yl)-3-(2-fluoro-4-(methylsulfonyl)phenoxy)pyrrolidin-2-one], in that order: 26.1 nmol and 3.7.
For `CC(C)(C)c1nsc(N2CCC(N3CC[C@H](Oc4c(F)cc(S(C)(=O)=O)cc4F)C3=O)CC2)n1` [Example 36, (S)-1-(1-(3-tert-butyl-1,2,4-thiadiazol-5-yl)piperidin-4-yl)-3-(2,6-difluoro-4-(methylsulfonyl)phenoxy) pyrrolidin-2-one], in that order: 23.2 nmol and 4.1.
Turning to `CC(C)(C)c1nsc(N2CCC(N3CC[C@H](Nc4ccc(S(C)(=O)=O)cc4F)C3=O)CC2)n1` [Example 37, (S)-1-(1-(3-tert-butyl-1,2,4-thiadiazol-5-yl)piperidin-4-yl)-3-(2-fluoro-4-(methylsulfonyl)phenyl-amino)pyrrolidin-2-one], the “cAMP production in HEK-293 cells” value amounted to 20.9 nmol and the Fold over baseline was found to be 3.2.
As for `COC(C)(C)c1nsc(N2CCC(N3CC[C@H](Oc4ccc(S(C)(=O)=O)cc4F)C3=O)CC2)n1` [Example 38, (S)-3-(2-fluoro-4-(methylsulfonyl)phenoxy)-1-(1-(3-(2-methoxypropan-2-yl)-1,2,4-thiadiazol-5-yl)piperidin-4-yl)pyrrolidin-2-one], the “cAMP production in HEK-293 cells” value was 42.1 nmol and the Fold over baseline was 6.6.
For `COC(C)(C)c1nsc(N2CCC(N3CC[C@H](Oc4cc(F)c(S(C)(=O)=O)cc4F)C3=O)CC2)n1` [Example 39, (S)-3-(2,5-difluoro-4-(methylsulfonyl)phenoxy)-1-(1-(3-(2-methoxypropan-2-yl)-1,2,4-thiadiazol-5-yl)piperidin-4-yl)pyrrolidin-2-one], in that order: 22.4 nmol and 3.7.
Regarding `COC(C)(C)c1nsc(N2CCC(N3CC[C@H](Oc4c(F)cc(S(C)(=O)=O)cc4F)C3=O)CC2)n1` [Example 40, (S)-3-(2,6-difluoro-4-(methylsulfonyl)phenoxy)-1-(1-(3-(2-methoxypropan-2-yl)-1,2,4-thiadiazol-5-yl)piperidin-4-yl)pyrrolidin-2-one], the “cAMP production in HEK-293 cells” value is 21.1 nmol and the Fold over baseline is 3.9.
As for `COC(C)(C)c1nsc(N2CCC(N3CC[C@H](Nc4ccc(S(C)(=O)=O)cc4F)C3=O)CC2)n1` [Example 41, (S)-3-(2-fluoro-4-(methylsulfonyl)phenyl-amino)-1-(1-(3-(2-methoxypropan-2-yl)-1,2,4-thiadiazol-5-yl)piperidin-4-yl)pyrrolidin-2-one], the “cAMP production in HEK-293 cells” value worked out at 8.1 nmol and the Fold over baseline is given as 2.0.
For `CS(=O)(=O)c1ccc(O[C@H]2CCN(C3CCN(c4nc(-n5cccn5)ns4)CC3)C2=O)c(F)c1` [Example 42, (S)-1-(1-(3-(1H-pyrazol-1-yl)-1,2,4-thiadiazol-5-yl)piperidin-4-yl)-3-(2-fluoro-4-(methylsulfonyl)phenoxy)pyrrolidin-2-one], in that order: 12.0 nmol and 2.5.
For `Cc1nnc(-c2ccc(O[C@H]3CCN(C4CCN(c5nc(C(C)C)ns5)CC4)C3=O)c(F)c2)o1` [Example 43, (S)-3-(2-fluoro-4-(5-methyl-1,3,4-oxadiazol-2-yl)phenoxy)-1-(1-(3-isopropyl-1,2,4-thiadiazol-5-yl)piperidin-4-yl)pyrrolidin-2-one], in that order: 29.4 nmol and 7.4.
For `CC(C)c1nsc(N2CCC(N3CCC(Oc4ccc(S(=O)(=O)CC5CC5)cc4F)C3=O)CC2)n1` (centres unmarked) [Example 44, 3-(4-(Cyclopropylmethylsulfonyl)-2-fluorophenoxy)-1-(1-(3-isopropyl-1,2,4-thiadiazol-5-yl)piperidin-4-yl)pyrrolidin-2-one trifluoroacetate], in that order: 23.8 nmol and 3.4.

Source of the values: patent US20140256756A1, “PIPERIDINYL-SUBSTITUTED LACTAMS AS GPR119 MODULATORS” (Array BioPharma Inc., priority 2011, published 2014).
